What was measured:
WM115-Glu cells = test: live-cell validation, cell viability (cell number) by nuclear-channel imaging, glycolytic cell line; assay type: cell-based, human; conditions: WM115-Glu (glucose-rich medium), 384-well live-cell plate, tested at 10.0 μM; live cells visible over full concentration range
Procedure: (§1) Live cells are clearly visible in the full concentration range for WM115-Glu cells, but not for WM115-Gal cells (low cell density in 0.1 μM→10.0 μM antimycin A). FIG. 4b is a graphical representation of the same data.
(§2) Antimycin A acts on respiration […] of the electron transport chain. Glucose-deprived cells (WM115-Gal) are dependent on mitochondrial respiration for ATP, and are therefore sensitive to antimycin A. In contrast, the WM115-Glu cells grown in glucose-rich media are reliant on glycolysis for ATP generation and as predicted, these cells appear resistant to antimycin A.

WM115-Gal cells = test: live-cell validation, cell viability (cell number) by nuclear-channel imaging, respiring cell line; assay type: cell-based, human; conditions: WM115-Gal (glucose-free galactose medium), 384-well live-cell plate; as low as 0.1 μM; low cell density at 0.1 μM→10.0 μM
Procedure: as §1, §2

## antimycin A
WM115-Glu cells
  sensitivity of cells to drug (live cells visible / cell number): resistant
WM115-Gal cells
  sensitivity of cells to drug (live cells visible / cell number): susceptible
